From patent EP4572800B1, “TETRAZINES WITH IMPROVED PROPERTIES” (Tagworks Pharmaceuticals B.V., priority 2023, dated 2024)

Key:
[1] = tested on: calcium channel L-type, dihydropyridine; experiment: Transporter ligand binding inhibition, calcium channel L-type; parameters: species or system rats; conditions: for % Calcium channel L-type dihydropyridine inhibition: final concentration of tetrazine 10 µM, rat, ligand binding
Procedure: (§1) In this Example, the inhibition of several physiologically relevant target proteins (viz. enzymes and a transporter) by tetrazines were tested in vitro. The enzymes tested were cyclooxygenase (COX-1), acetyl cholinesterase (ACES), and monoamine oxidase (MAO-B), and the tested transporter was calcium channel L-type, dihydropyridine. COX-1, ACES, and MAO-B from humans was used, while calcium channel L-type, dihydropyridine from rats was used. Standard literature protocols were used, and relevant controls were included to ensure the validity of the results. The target proteins were mixed with tetrazine 2.1 (reference), 2.4, 2.5, 2.7, or 2.10 (final concentration of tetrazine 10 µM) in appropriate buffers. The final concentrations for the respective target proteins depended on the standard protocol used, but for each individual target protein this concentration was the same for the different tetrazines tested. After an appropriate incubation time at an appropriate temperature, the enzymatic activity of the enzyme or the ligand binding in case of the transporter was tested in accordance with standard procedures from literature. From this remaining enzymatic activity or ligand binding, the percentage of inhibition was determined.

[2] = target: T1, monoamine oxidase (MAO-B) (Homo sapiens, UniProt P27338); experiment: Enzyme inhibition study, MAO-B; assay type: biochemical, humans; conditions: for % MAO-B inhibition: final concentration of tetrazine 10 µM, human MAO-B
T1 sequence (P27338 1-520): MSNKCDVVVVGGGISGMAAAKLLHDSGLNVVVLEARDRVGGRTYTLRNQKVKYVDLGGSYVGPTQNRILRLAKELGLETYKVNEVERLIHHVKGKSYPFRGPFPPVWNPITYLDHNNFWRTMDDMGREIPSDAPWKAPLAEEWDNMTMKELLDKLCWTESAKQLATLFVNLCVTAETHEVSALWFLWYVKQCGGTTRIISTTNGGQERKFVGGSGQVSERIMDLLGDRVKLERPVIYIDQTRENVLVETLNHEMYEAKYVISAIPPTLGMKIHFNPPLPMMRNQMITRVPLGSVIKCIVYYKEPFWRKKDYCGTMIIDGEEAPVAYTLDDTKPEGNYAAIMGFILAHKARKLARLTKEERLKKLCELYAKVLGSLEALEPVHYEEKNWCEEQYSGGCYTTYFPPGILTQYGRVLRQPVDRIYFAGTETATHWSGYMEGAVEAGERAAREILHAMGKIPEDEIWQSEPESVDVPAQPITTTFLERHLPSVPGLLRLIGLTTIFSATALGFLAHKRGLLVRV
Procedure: as §1

[3] = tested on: Swiss albino mice; experiment: Maximum tolerated dose (MTD) study in mice, single intravenous dose; assay type: in vivo; conditions: 72 hours
Procedure: (§2) In this Example, groups of Swiss albino mice (an equal number of male and female animals) were subjected to a single dose of tetrazine 2.1 (reference), 2.4, 2.5, 2.7, or 2.10. Different groups were used for different doses. […] Control groups were also used, wherein mice were only administered vehicle (phosphate-buffered saline (PBS) pH 7.4) without tetrazine ("vehicle control").
(§3) Mice were treated in line with ethical guidelines. […] Environmental controls for the animal room were set to maintain a temperature of 22 to 25°C, humidity of 30-70% RH, and a 12-h light/12-h dark cycle.
(§4) The dose formulations were prepared as follows. Tetrazine 2.1 (reference), 2.4, 2.5, 2.7, or 2.10 was dissolved in PBS pH 7.4 to prepare separate stock solutions of each tetrazine. […] Further dilutions of the tetrazine stock solutions were done with PBS pH 7.4 to achieve a desired concentration.
(§5) Mice were dosed on day 1 by intravenously administering the dose formulation (expressed in µmol of tetrazine per kg body weight of the mouse). Thereafter, the mice were observed up to 72 hours post-dose for any signs of mortality. The number of dead mice after 72 hours ("mortality") was then divided by the original number of mice.

[4] = target: cyclooxygenase (COX-1) (Homo sapiens, UniProt P23219); experiment: Enzyme inhibition study, COX-1; assay type: biochemical, humans; conditions: for % COX-1 inhibition: final concentration of tetrazine 10 µM, human COX-1
cyclooxygenase (COX-1), sequence (P23219 24-599): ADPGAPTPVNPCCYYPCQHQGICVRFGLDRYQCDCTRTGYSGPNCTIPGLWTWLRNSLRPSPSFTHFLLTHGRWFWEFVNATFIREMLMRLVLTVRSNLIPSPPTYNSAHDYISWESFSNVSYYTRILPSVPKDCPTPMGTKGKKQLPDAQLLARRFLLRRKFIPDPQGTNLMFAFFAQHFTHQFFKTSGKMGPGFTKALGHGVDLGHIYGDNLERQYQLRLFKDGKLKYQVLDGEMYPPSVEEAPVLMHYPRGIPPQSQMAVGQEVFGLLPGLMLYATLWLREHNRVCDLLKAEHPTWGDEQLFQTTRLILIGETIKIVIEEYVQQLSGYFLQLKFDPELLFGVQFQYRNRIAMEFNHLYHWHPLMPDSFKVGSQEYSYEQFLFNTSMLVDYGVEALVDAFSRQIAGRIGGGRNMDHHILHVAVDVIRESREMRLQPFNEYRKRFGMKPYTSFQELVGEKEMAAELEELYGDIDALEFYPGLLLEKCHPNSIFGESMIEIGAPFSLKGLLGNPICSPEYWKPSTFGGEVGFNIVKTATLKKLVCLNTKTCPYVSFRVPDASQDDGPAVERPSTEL
Procedure: as §1

[5] = target: acetyl cholinesterase (ACES) (Homo sapiens, UniProt P22303); experiment: Enzyme inhibition study, ACES; assay type: biochemical, humans; conditions: for % ACES inhibition: final concentration of tetrazine 10 µM, human ACES
acetyl cholinesterase (ACES), sequence (P22303 32-614): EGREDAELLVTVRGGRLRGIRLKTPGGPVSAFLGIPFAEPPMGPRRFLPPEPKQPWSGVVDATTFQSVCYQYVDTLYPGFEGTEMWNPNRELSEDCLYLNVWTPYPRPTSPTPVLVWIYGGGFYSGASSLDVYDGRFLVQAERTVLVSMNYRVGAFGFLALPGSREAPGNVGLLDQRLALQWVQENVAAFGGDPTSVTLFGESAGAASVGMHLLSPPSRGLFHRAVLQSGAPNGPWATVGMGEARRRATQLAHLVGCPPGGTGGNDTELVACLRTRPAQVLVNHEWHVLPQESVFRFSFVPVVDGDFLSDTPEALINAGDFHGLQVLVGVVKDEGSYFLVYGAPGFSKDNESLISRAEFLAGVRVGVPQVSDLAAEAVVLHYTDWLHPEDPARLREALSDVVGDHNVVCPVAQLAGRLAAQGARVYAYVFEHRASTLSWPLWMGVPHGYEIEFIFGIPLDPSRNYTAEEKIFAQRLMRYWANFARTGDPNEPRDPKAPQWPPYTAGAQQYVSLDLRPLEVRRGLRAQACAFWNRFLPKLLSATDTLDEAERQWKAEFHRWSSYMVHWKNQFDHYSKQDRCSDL
Procedure: as §1

[6] = Maximum tolerated dose (MTD) study in mice, single intravenous dose; assay type: in vivo; conditions: both sexes, Swiss albino, mouse, in vivo, iv, mice, single intravenous dose, observed up to 72 hours post-dose
Procedure: as §2, §3, §4, §5

Row | SMILES | % Calcium channel L-type dihydropyridine inhibition [1] [%] | % MAO-B inhibition [2] [%] | % COX-1 inhibition [4] [%] | % ACES inhibition [5] [%] | MTD at 72 h [6] [µmol/kg] | further results
1 | O=C([O-])CN(CCN(CC(=O)[O-])CC(=O)Nc1ccc(-c2nnc(-c3ccccn3)nn2)nc1)CC(=O)[O-].[Ca+2].[Na+] [2.5, Calcium sodium 2-({2-[bis(carboxylatomethyl)amino]ethyl)[({6-[6-(pyridin-2-yl)-1,2,4,5-tetrazin-3-yl]pyridin-3-yl}carbamoyl)methyl]amino)acetate] | 1 | 9 | 18 | -1 | – | No. of mortality vs. total no. of mice ([3]; 85 µmol/kg i.v. single dose): 0 out of 6; No. of mortality vs. total no. of mice ([3]; 171 µmol/kg i.v. single dose): 0 out of 6; No. of mortality vs. total no. of mice ([3]; 512 µmol/kg i.v. single dose): 0 out of 6
2 | O=C(O)CCOCCOCCOCCC(=O)Nc1ccc(-c2nnc(-c3ccccn3)nn2)nc1 [2.7, 3-(2-(2-(3-Oxo-3-((6-(6-(pyridin-2-yl)-1,2,4,5-tetrazin-3-yl)pyridin-3-yl)amino)propoxy)ethoxy)ethoxy)propanoic acid] | -17 | 38 | 37 | 22 | – | No. of mortality vs. total no. of mice ([3]; 103 µmol/kg i.v. single dose): 0 out of 6; No. of mortality vs. total no. of mice ([3]; 207 µmol/kg i.v. single dose): 0 out of 6; No. of mortality vs. total no. of mice ([3]; 621 µmol/kg i.v. single dose): 0 out of 6
3 | O=C(O)CN1CCN(CC(=O)O)CCN(CC(=O)NCCOCCOCCOCCOCCOCCOCCOCCOCCOCCOCCOCCNC(=O)CCCC(=O)Nc2ccc(-c3nnc(-c4ccccn4)nn3)nc2)CCN(CC(=O)O)CC1 [compound 2.1, 2,2',2''-(10-(2,40,44-Trioxo-44-((6-(6-(pyridine-2-yl)-1,2,4,5-tetrazin-3-yl)pyridine-3-yl)amino)-6,9,12,15,18,21,24,27,30,33,36-undecaoxa-3,39-diazatetratetracontyl)-1,4,7,10-tetraazacyclododecane-1,4,7-triyl)triacetic acid, reference compound] | 44 | 36 | 59 | 44 | ~39 | inhibition of calcium channel L-type, dihydropyridine, in words ([1]; statement in description): strongly inhibits; inhibition of monoamine oxidase (MAO-B), in words ([2]; statement in description): strongly inhibits; No. of mortality vs. total no. of mice ([3]; 8 µmol/kg i.v. single dose): 0 out of 6; No. of mortality vs. total no. of mice ([3]; 39 µmol/kg i.v. single dose): 0 out of 6; No. of mortality vs. total no. of mice ([3]; 78 µmol/kg i.v. single dose): 4 out of 6; inhibition of cyclooxygenase (COX-1), in words ([4]; statement in description): strongly inhibits; inhibition of acetyl cholinesterase (ACES), in words ([5]; statement in description): strongly inhibits
4 | O=C(O)CN(CC(=O)O)CC(=O)Nc1ccc(-c2nnc(-c3ccccn3)nn2)nc1 [2.10, 2,2'-((2-Oxo-2-((6-(6-(pyridin-2-yl)-1,2,4,5-tetrazin-3-yl)pyridin-3-yl)amino)ethyl)azanediyl)diacetic acid] | -3 | 22 | 14 | 5 | – | No. of mortality vs. total no. of mice ([3]; 118 µmol/kg i.v. single dose): 0 out of 6; No. of mortality vs. total no. of mice ([3]; 177 µmol/kg i.v. single dose): 0 out of 6; No. of mortality vs. total no. of mice ([3]; 236 µmol/kg i.v. single dose): 0 out of 6
5 | O=C(O)CN(CCN(CC(=O)O)CC(=O)Nc1ccc(-c2nnc(-c3ccccn3)nn2)nc1)CC(=O)O [2.4, 2,2'-((2-((Carboxymethyl)(2-oxo-2-((6-(6-(pyridin-2-yl)-1,2,4,5-tetrazin-3-yl)pyridin-3-yl)amino)ethyl)amino)ethyl)azanediyl)diacetic acid] | 10 | 20 | 53 | 11 | ≥ 57 | No. of mortality vs. total no. of mice ([3]; 19 µmol/kg i.v. single dose): 0 out of 6; No. of mortality vs. total no. of mice ([3]; 57 µmol/kg i.v. single dose): 0 out of 6; No. of mortality vs. total no. of mice ([3]; 95 µmol/kg i.v. single dose): 4 out of 4
